Test results taken from patent publication US4820713A, “Ketoalkanol esters of dihydrolysergic acid useful as 5HT receptor antagonists” (Eli Lilly and Company, priority 1988, dated 1989).
Counter-ions that a name gives are not always drawn.

Columns and labels:
[1] = test system: vascular alpha adrenergic receptors; details: in words; Cohen I; cited from earlier work
[2] = test system: dopaminergic receptors; details: in words; Cohen I; cited from earlier work
[3] = target: 5HT2 receptors; details: cited from earlier work
[4] = test system: 5HT2 receptors; details: in words; cited from earlier work
[5] = test system: histaminergic receptors; details: in words; Cohen I; cited from earlier work
[6] = target: T1, 5HT2 receptors (Rattus norvegicus, UniProt P14842); experiment: Apparent antagonist dissociation constant (-log KB) versus serotonin-induced contraction of isolated rat jugular vein; set-up: species or system male Wistar rats; details: antagonist incubated one hour, 37° C., maleate salt, read-out: 5HT2 -Log Kb ± S.E. (converted)
T1 construct: external jugular veins and thoracic aortas dissected free of connective tissue; from tissue; host or cells: external jugular vein of male Wistar rats
Description: An initial optimum resting force of 1 and 4 g was applied to the jugular vein and aorta, respectively. […] Exp. Ther., 205, 400 (1978). Alpha receptor antagonist activity was evaluated in the aorta.

[7] = test system: blood pressure; details: in humans; ketanserin; cited from earlier work

T1 sequence (P14842 whole entry): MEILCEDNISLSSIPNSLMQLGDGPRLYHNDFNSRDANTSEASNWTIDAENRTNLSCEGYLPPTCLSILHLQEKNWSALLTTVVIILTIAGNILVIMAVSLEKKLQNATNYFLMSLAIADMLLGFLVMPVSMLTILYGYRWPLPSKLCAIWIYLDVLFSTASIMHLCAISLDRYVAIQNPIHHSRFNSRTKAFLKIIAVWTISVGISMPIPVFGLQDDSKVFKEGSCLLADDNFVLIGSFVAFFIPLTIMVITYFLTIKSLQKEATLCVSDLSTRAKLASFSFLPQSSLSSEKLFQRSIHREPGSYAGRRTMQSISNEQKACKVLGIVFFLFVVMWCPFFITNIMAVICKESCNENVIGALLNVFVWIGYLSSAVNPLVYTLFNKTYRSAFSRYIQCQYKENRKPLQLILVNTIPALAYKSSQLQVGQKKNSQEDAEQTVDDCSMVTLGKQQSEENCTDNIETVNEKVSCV

## CC(O)C(C)OC(=O)[C@@H]1C[C@@H]2c3cccc4c3c(cn4C(C)C)C[C@H]2N(C)C1 (stereo partly drawn) [LY53857, 1-isopropyl-6-methyl-8β-(1-methyl-2-hydroxy)propoxycarbonyl-5R-ergoline]
[1]
  affinity for vascular alpha adrenergic receptors: minimal affinity
[2]
  affinity for dopaminergic receptors: minimal affinity
[3]; Cohen et al. J.P.E.T., 227, 327 (1983), read-out: Kdissoc. (5HT2 receptors)
  Kd: ~0.1 nM
[3]; effect mediated by 5HT2 receptors, Cohen I
  antagonism of vascular contraction to serotonin: potent antagonist of vascular contraction to serotonin
[4]
  peripheral serotonin antagonist activity, ranking among Garbrecht compounds: most active peripheral serotonin antagonist
[5]
  affinity for histaminergic receptors: minimal affinity

## CC(=O)[C@@H](C)OC(=O)[C@@H]1C[C@@H]2c3cccc4c3c(cn4C(C)C)C[C@H]2N(C)C1 [RCH(CH3)COCH3, R-1-methyl-2-oxopropyl 1-isopropyl-9,10-dihydrolysergate maleate]
[6]
  Kb: 0.355 nM

## CC(=O)[C@H](C)OC(=O)[C@@H]1C[C@@H]2c3cccc4c3c(cn4C(C)C)C[C@H]2N(C)C1 [SCH(CH3)COCH3, S-1-methyl-2-oxopropyl 1-isopropyl-9,10-dihydrolysergate]
[6]
  Kb: 0.269 nM

## O=C(c1ccc(F)cc1)C1CCN(CCn2c(=O)[nH]c3ccccc3c2=O)CC1 [ketanserin]
[7]
  lower blood pressure: lower blood pressure in humans
